# Where a name gives a salt, the structure may show the parent alone.
# Key:
# human sputum elastase = biological target: T1, human sputum elastase (Homo sapiens, UniProt P08246); assay: Inhibitory effect on elastase (human sputum), spectrophotometric assay with MeOSuc-Ala-Ala-Pro-Val-pNA; type: biochemical; details: S: human sputum elastase; pH 8.0, 37° C.; read-out: IC50
# T1 sequence (P08246 30-247 limits assumed): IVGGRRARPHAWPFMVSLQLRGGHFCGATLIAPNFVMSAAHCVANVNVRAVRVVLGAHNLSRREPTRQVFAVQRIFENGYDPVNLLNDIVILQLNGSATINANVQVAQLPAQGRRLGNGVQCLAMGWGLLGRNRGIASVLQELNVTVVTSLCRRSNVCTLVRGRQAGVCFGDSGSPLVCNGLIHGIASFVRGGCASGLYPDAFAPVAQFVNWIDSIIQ
# [1] = Cytotoxicity test (MTT, three days); type: cell-based; details: mouse, l1210 cells, read-out: Survival rate; for viability at 72 h, 1 µM: final concentration 1 μM; for viability at 72 h, 5 µM: final concentration 5 μM; for viability at 72 h, 10 µM: final concentration 10 μM
# Description: L1210 (lymphocytic leukemia, mouse) cells in a logarithmic growth phase were collected and washed twice with HBSS (Hanks' balanced salt solution). The L1210 cells were resuspended at 5.0×10^4 cells/ml in RPMI 1640 medium containing 10% heat-inactivated fetal bovine serum. The cell suspension was dispensed in 100 μl aliquots into 96 well multi-plate. Each of compounds to be tested was dissolved in dimethylsulfoxide at a concentration of 10 mM. The solutions were stepwise diluted with RPMI 1640 solution containing 10% heat-inactivated fetal bovine serum. Each of the diluted samples was dispensed in an amount of 10 μl well in the 96 well multi-plate containing L1210 cells and incubated for three days at 37° C. in humidified 5% CO2 -air mixture. To each of the wells, 10 μl of MTT (3-(4,5-dimethylthiazol-2-yl)-2,5-diphenyltetrazolium bromide)(5 mg/ml in phosphate buffer free of Ca^2+ and Mg^2+) was added. Cultivation was continued for additional five hours at 37° C. in humidified 5% CO2 -air mixture. To each of the wells, 100 μl of 20% SDS (sodium dodecyl sulfate) in 0.01N HCl was added to solubilize the MTT formazan.
# Absorbance was measured at 630 nm as a reference wavelength and 570 nm as a measuring wavelength using Corona Electric MTP22 Microplate Photometer. The measurement was conducted three times for each of the samples to obtain an average value and a standard deviation. Survival rate was calculated by the following equation:
# Survival rate (5)=[(absorbance of test sample)/(absobance of […]
Structure (SMILES),IC50 (human sputum elastase),"viability at 72 h, 1 µM [1]","viability at 72 h, 5 µM [1]","viability at 72 h, 10 µM [1]"
"Cc1cc(-c2nnn(Cc3ccc(N(C)C)cc3)n2)ccc1OC(=O)C(C)(C)C [Example 49, 4-[2-[4-(Dimethylamino)benzyl]tetrazol-5-yl]-2-methylphenyl pivalate]",700 nM,103%,105%,110%
"CC(C)(C)C(=O)Oc1ccc(-c2nnn(Cc3ccc(C(=O)O)cc3)n2)cc1 [Example 54, 4-[5-(4-Pivaloyloxyphenyl)tetrazol-2-ylmethyl]benzoic acid]",56 nM,101%,107%,100%
"CC(C)(C)C(=O)Oc1ccc(-c2nnn(C(C(=O)O)c3ccccc3)n2)cc1 (centres unmarked) [Example 69, 2-Phenyl-2-[5-(4-pivaloyloxyphenyl)tetrazol-2-yl]acetic acid]",820 nM,96.7%,105%,101%
"COc1ccc(COCCCCn2nnc(-c3ccccc3OC(=O)C(C)(C)C)n2)cc1 [Example 22, 2-[2-[4-(4-Methoxybenzyloxy)butyl]tetrazol-5-yl]phenyl pivalate]",4300 nM,102%,86.4%,86.7%
"CC(C)(C)C(=O)Oc1ccc(-c2nnn(Cc3ccccc3N)n2)cc1 [Example 78, 4-[2-(2-Aminobenzyl)tetrazol-5-yl]phenyl pivalate]",91 nM,103%,107%,93.7%
"CC(C)(C)C(=O)Oc1ccc(-c2nnn(Cc3ccccc3)n2)cc1 [Example 9, 4-(2-Benzyltetrazol-5-yl)phenyl pivalate]",170 nM,93.9%,100%,98.1%
"CC(C)[C@H](NC(=O)c1ccc(Cn2nnc(-c3ccc(OC(=O)C(C)(C)C)cc3)n2)cc1)C(=O)O [Example 67, N-[4-[5-(4-Pivaloyloxyphenyl)tetrazol-2-ylmethyl]benzoyl]-L-valine]",130 nM,92.2%,100%,90.1%
"CC(C)(C)C(=O)Oc1ccc(-c2nnn(CC(=O)O)n2)cc1 [Example 80, 5-(4-Pivaloyloxyphenyl)-2-tetrazoleacetic acid]",,93.9%,98.1%,109%
"CC(C)(C)C(=O)Oc1ccc(-c2nnn(Cc3ccc([N+](=O)[O-])cc3)n2)cc1 [Example 25, 4-[2-(4-Nitrobenzyl)tetrazol-5-yl]phenyl pivalate]",280 nM,,,
"CNc1ccc(Cn2nnc(-c3ccc(OC(=O)C(C)(C)C)cc3)n2)cc1 [Example 90, 4-[2-(4-Methylaminobenzyl)tetrazol-5-yl]phenyl pivalate]",110 nM,,,
"CN(C)c1ccc(Cn2nnnc2-c2ccc(OC(=O)C(C)(C)C)cc2)cc1 [Example 99, 4-[1-[4-(Dimethylamino)benzyl]tetrazol-5-yl]phenyl pivalate]",340 nM,,,
"CC(C)(C)C(=O)Oc1ccc(-c2nnn(Cc3ccccc3OCCN)n2)cc1 [Example 84, 4-[2-[2-(2-Aminoethoxy)benzyl]tetrazol-5-yl]phenyl pivalate Hydrochloride]",720 nM,,,
"CN(C(=O)OC(C)(C)C)c1ccc(Cn2nnc(-c3ccc(OC(=O)C(C)(C)C)cc3)n2)cc1 [Example 39, 4-[2-[4-(N-t-Butoxycarbonyl-N-methylamino)benzyl]tetrazol-5-yl]phenyl pivalate]",80 nM,,,
"CC(C)(C)OC(=O)NCCn1nnc(-c2ccc(OC(=O)C(C)(C)C)cc2)n1 [Example 45, 4-[2-[2-(t-Butoxycarbonylamino)ethyl]tetrazol-5-yl]phenyl pivalate]",130 nM,,,
"CC(C)(C)C(=O)Oc1ccc(-c2nnn(C(C(=O)NCC(=O)O)c3ccccc3)n2)cc1 (centres unmarked) [Example 70, N-[2-Phenyl-2-[5-(4-pivaloyloxyphenyl)tetrazol-2-yl]acetyl]glycine]",1000 nM,,,

# — patent US5602161A, “Tetrazolylphenyl pivalate derivatives and medicinal composition containing the same as effective component” (Wakamoto Pharmaceutical Co., Ltd., priority 1994, dated 1997)
